Measurements reported in US20110143999A1, “FOWLICIDINS AND METHODS OF ITS USE” (priority 2005, published 2011).
≈ marks a conversion by molar mass, not a printed value. Where two headings read alike, the source gives them in different places. Residues, ends and D or L forms follow the SMILES beside them.

Assays:
S. aureus ATCC 25923 [1] = test system: S. aureus ATCC 25923
E. coli ATCC 25922 [2] = test system: E. coli ATCC 25922
[3] = test system: L. monocytogenes ATCC 19115; experiment: Modified broth microdilution assay (1% MHB); conditions: Table V, Example 2, listed as fowlicidin-1-K^7L^12K^14L^16K^18
[4] = test system: S. typhimurium ATCC 14028
LPS from E. coli O111:B4 = experiment: LPS binding assay (chromogenic Limulus amebocyte lysate); conditions: Table V; 50% inhibition of LPS-mediated procoagulant activation
[5] = test system: three Gram-negative and four Gram-positive bacteria; conditions: Example 3; 20% TSB, 25 mM NaHCO3, 1 mM NaH2PO4, with or without 100 mM NaCl
[6] = test system: E. coli O157:H7 ATCC 700728; conditions: 1% MHB
K. pneumoniae ATCC 13883 [7] = test system: K. pneumoniae ATCC 13883
[8] = test system: S. aureus (MRSA) ATCC BAA-39
[9] = test system: S. typhimurium DT104 ATCC 700408
[10] = test system: S. enteritidis ATCC 13076
MDCK cells [11] = experiment: Cytotoxicity assay (alamarBlue)
[12] = test system: S. aureus (MRSA) ATCC 43300
[13] = test system: S. aureus (MRSA) ATCC BAA-39; remark: listed apart in the source
[14] = test system: L. monocytogenes ATCC 19115
[15] = test system: S. typhimurium DT104 ATCC 700408; remark: listed apart in the source
S. aureus ATCC 25923 [16] = test system: S. aureus ATCC 25923; remark: listed apart in the source
MDCK cells [17] = test system: MDCK cells
E. coli ATCC 25922 [18] = test system: E. coli ATCC 25922; remark: listed apart in the source
[19] = test system: S. typhimurium ATCC 14028; remark: listed apart in the source
K. pneumoniae ATCC 13883 [20] = test system: K. pneumoniae ATCC 13883; remark: listed apart in the source
[21] = test system: Gram-negative and Gram-positive bacteria; conditions: Example 4, summary of Table VII

With `CC[C@H](C)[C@H](NC(=O)[C@H](C)NC(=O)[C@H](CCCNC(=N)N)NC(=O)[C@H](Cc1ccc(O)cc1)NC(=O)[C@H](CC(C)C)NC(=O)[C@H](CCCCN)NC(=O)[C@H](Cc1ccc(O)cc1)NC(=O)[C@H](CC(C)C)NC(=O)[C@H](C)NC(=O)[C@H](CCCCN)NC(=O)[C@@H](NC(=O)[C@H](CC(C)C)NC(=O)[C@H](CCCNC(=N)N)NC(=O)[C@@H](NC(=O)[C@@H](NC(=O)[C@H](CC(C)C)NC(=O)[C@H](CCCCN)NC(=O)[C@H](Cc1c[nH]c2ccccc12)NC(=O)[C@@H](NC(=O)[C@H](CCCNC(=N)N)NC(=O)[C@H](CCCCN)NC(=O)[C@@H](NC(=O)[C@@H](N)CCCNC(=N)N)C(C)C)C(C)C)C(C)C)[C@@H](C)CC)C(C)C)C(=O)N[C@@H](CCCCN)C(=O)N[C@@H](CCCCN)C(=O)N[C@@H](CCCCN)C(=O)O` [Fowl-1-KLKLK] (H-RVKRVWKLVIRLVKALYKLYRAIKKK-OH; N-terminus assumed) the “Antibacterial Activity (MIC, μM) S. aureus” value (S. aureus ATCC 25923 [1]) was 1.9 µM, the “Antibacterial Activity (MIC, μM) E. coli” value (E. coli ATCC 25922 [2]; Table V, Example 2, 1% MHB, listed as fowlicidin-1-K^7L^12K^14L^16K^18) was greater than 7.6 µM and the “Antibacterial Activity (MIC, μM) Listeria” value [3] was greater than 7.6 µM. The “Antibacterial Activity (MIC, μM) Salmonella” value [4] was 1.9 µM, the EC50 (LPS from E. coli O111:B4) was 6 µM and the EC50 was 11 µM.
With `CC[C@H](C)[C@H](NC(=O)[C@@H](NC(=O)[C@@H](NC(=O)[C@@H](NC(=O)[C@@H](NC(=O)[C@H](CCCCN)NC(=O)[C@@H]1CCCN1)C(C)C)[C@@H](C)O)[C@@H](C)CC)[C@@H](C)O)C(=O)N[C@@H](CCC(N)=O)C(=O)NCC(=O)N[C@@H](CO)C(=O)N[C@@H](C)C(=O)N[C@@H](CCCNC(=N)N)C(=O)N[C@@H](Cc1ccccc1)C(=O)O` [Fowl-2(19-31)] (H-PKVTITIQGSARF-OH; N-terminus and C-terminus assumed) the “MIC (range over bacteria tested)” value [5] was greater than 32 µM.
Molecule `CC[C@H](C)[C@H](NC(=O)[C@H](CCCCN)NC(=O)[C@H](CCCNC(=N)N)NC(=O)[C@H](CC(C)C)NC(=O)[C@H](Cc1ccccc1)NC(=O)[C@H](CCCNC(=N)N)NC(=O)CNC(=O)[C@H](Cc1ccccc1)NC(=O)[C@H](CCCNC(=N)N)NC(=O)CNC(=O)[C@H](CCCNC(=N)N)NC(=O)[C@H](CCC(N)=O)NC(=O)[C@@H](NC(=O)[C@@H](N)CC(C)C)C(C)C)C(=O)N[C@@H](CCCNC(=N)N)C(=O)N[C@@H](CCCNC(=N)N)C(=O)N[C@@H](Cc1ccccc1)C(=O)N[C@@H](CCCNC(=N)N)C(=O)N1CCC[C@H]1C(=O)N[C@@H](CCCCN)C(=O)N[C@H](C(=O)N[C@H](C(=O)N[C@H](C(=O)N[C@H](C(=O)N[C@H](C(=O)N[C@@H](CCC(N)=O)C(=O)NCC(=O)N[C@@H](CO)C(=O)N[C@@H](C)C(=O)N[C@@H](CCCNC(=N)N)C(=O)N[C@@H](Cc1ccccc1)C(=O)O)[C@@H](C)CC)[C@@H](C)O)[C@@H](C)CC)[C@@H](C)O)C(C)C` [Fowlicidin-2] (H-LVQRGRFGRFLRKIRRFRPKVTITIQGSARF-OH; N-terminus and C-terminus assumed) has an MIC (S. aureus ATCC 25923 [1]) of 0.66 µM (≈ 2.48 µg/mL), an MIC (E. coli ATCC 25922 [2]) of 2.66 µM (≈ 10 µg/mL) and an MIC ([6]; NaCl 0 mM) of 0.66 µM (≈ 2.48 µg/mL). For the same molecule, the MIC ([6]; NaCl 100 mM) was 1.33 µM (≈ 5 µg/mL), the MIC (K. pneumoniae ATCC 13883 [7]) was 0.66 µM (≈ 2.48 µg/mL) and the “MIC (range over bacteria tested)” value [5] was 0.5 to 2 µM. The MIC [8] was 0.66 µM (≈ 2.48 µg/mL) and the MIC [9] was 0.66 µM (≈ 2.48 µg/mL).
In the case of `CC[C@H](C)[C@H](NC(=O)CNC(=O)[C@H](C)NC(=O)[C@H](C)NC(=O)[C@@H](NC(=O)[C@@H](NC(=O)[C@H](CC(N)=O)NC(=O)[C@@H](NC(=O)[C@H](C)NC(=O)[C@@H](NC(=O)[C@@H]1CCCN1C(=O)[C@@H](NC(=O)[C@H](CC(C)C)NC(=O)[C@@H]1CCCN1C(=O)[C@H](Cc1c[nH]c2ccccc12)NC(=O)[C@H](Cc1ccccc1)NC(=O)[C@H](CCCNC(=N)N)NC(=O)[C@@H](N)CCCCN)C(C)C)C(C)C)[C@@H](C)CC)[C@@H](C)O)C(C)C)C(=O)N[C@@H](CC(N)=O)C(=O)N[C@@H](CC(C)C)C(=O)N[C@@H](Cc1ccc(O)cc1)C(=O)N[C@@H](CCCCN)C(=O)N[C@@H](C)C(=O)N[C@H](C(=O)N[C@@H](CCCNC(=N)N)C(=O)N[C@@H](CCCNC(=N)N)C(=O)N[C@@H](CCCCN)C(=O)O)[C@@H](C)CC` [Fowlicidin-3] (H-KRFWPLVPVAINTVAAGINLYKAIRRK-OH; N-terminus and C-terminus assumed), the MIC [10] is reported as 2 µM (≈ 6.19 µg/mL), the “cytotoxicity (EC50) fold higher than MICs” value (MDCK cells [11]; in the presence of serum, against all bacterial strains tested) is reported as 10-to 40 fold and the EC50 (MDCK cells [11]; read-out: 50% effective concentration (EC50), MDCK cell killing, Example 4, without serum, FIG. 20A) is reported as 12 µM. The MIC [12] was 1 µM (≈ 3.1 µg/mL), the MIC [13] was 1 µM (≈ 3.1 µg/mL) and the MIC [14] was 2 µM (≈ 6.19 µg/mL). The MIC [15] was 2 µM (≈ 6.19 µg/mL), the MIC (S. aureus ATCC 25923 [16]) was 1 µM (≈ 3.1 µg/mL) and the “fold reduction in toxicity in the presence of 10% FBS” value (MDCK cells [17]) was 2 fold. For the same molecule, the MIC (E. coli ATCC 25922 [18]) was 2 µM (≈ 6.19 µg/mL), the MIC [19] was 2 µM (≈ 6.19 µg/mL) and the MIC (K. pneumoniae ATCC 13883 [20]) was 1 µM (≈ 3.1 µg/mL). The “MICs (range over bacteria tested)” value [21] was 1 to 2 µM.
